According to ChEMBL document CHEMBL3885861, “Open TG-GATES”:

Species: Rattus norvegicus
Assay: Open TG-GATES - Regimen: Single
Type: toxicity, organism-based, Sprague-Dawley
Parameters: regimen Single, gender Male, age 6 weeks
Settings: in vivo, po, route gavage; for APTT / Bas / Eos / Fbg / Hb / Ht / Lym / MCH / MCHC / MCV / Mono / Neu / PT / Plat / RBC / Ret / WBC: tissue Blood; for KIDNEY_L / KIDNEY_R / KIDNEY_TOTAL: tissue Kidney; for LIVER: tissue Liver; for A/G / ALP / ALT / AST / BUN / CRE / Ca / Cl / DBIL / GLC / IP / K / LDH / Na / PL / RALB / TBIL / TC / TG / TP / gamma-GTP: tissue Plasma
[1] = 0 mg/kg, 3 h, dose level Control
[2] = 0 mg/kg, 6 h, dose level Control
[3] = 0 mg/kg, 9 h, dose level Control
[4] = 0 mg/kg, 24 h, dose level Control
[5] = 300 mg/kg, 24 h, dose level Low

## CC(=O)[C@@]1(O)CC[C@H]2[C@@H]3C=C(Cl)C4=CC(=O)CC[C@]4(C)[C@H]3CC[C@@]21C [CHLORMADINONE]
[1]
  TERMINAL_BW: 219.1 g
  APTT: 23.2 s
  Bas: 0%
  Eos: 0.6%
  Fbg: 294.4 mg/dL
  Hb: 13.3 g/dL
  Ht: 41%
  Lym: 83.4%
  MCH: 20.4 pg
  MCHC: 32.3%
  MCV: 63.1 fL
  Mono: 2.2%
  Neu: 13.2%
  PT: 15.5 s
  Plat: 111.7 x10_4/uL
  RBC: 650.2 x10_4/ul
  Ret: 8%
  WBC: 78.7 x10_2/uL
  KIDNEY_L: 1 g
  KIDNEY_R: 1 g
  KIDNEY_TOTAL: 2 g
  LIVER: 10 g
  A/G: 1.2
  ALP: 1607 IU/L
  ALT: 42 IU/L
  AST: 77.8 IU/L
  BUN: 13.4 mg/dL
  CRE: 0.2 mg/dL
  Ca: 10.8 mg/dL
  Cl: 105.2 meq/L
  DBIL: 0 mg/dL
  GLC: 180 mg/dL
  IP: 8.1 mg/dL
  K: 4.3 meq/L
  LDH: 163.6 IU/L
  Na: 142.2 meq/L
  PL: 130.6 mg/dL
  RALB: 3 g/dL
  TBIL: 0.02 mg/dL
  TC: 71.8 mg/dL
  TG: 63.4 mg/dL
  TP: 5.4 g/dL
  gamma-GTP: 1.8 IU/L
[2]
  TERMINAL_BW: 216.7 g
  APTT: 23.8 s
  Bas: 0%
  Eos: 0.6%
  Fbg: 293.2 mg/dL
  Hb: 13.3 g/dL
  Ht: 41.1%
  Lym: 80.6%
  MCH: 20.6 pg
  MCHC: 32.3%
  MCV: 63.8 fL
  Mono: 2.8%
  Neu: 15.4%
  PT: 16.1 s
  Plat: 112 x10_4/uL
  RBC: 643.6 x10_4/ul
  Ret: 7.8%
  WBC: 116.8 x10_2/uL
  KIDNEY_L: 0.9 g
  KIDNEY_R: 1 g
  KIDNEY_TOTAL: 2 g
  LIVER: 9.2 g
  A/G: 1.2
  ALP: 1313.8 IU/L
  ALT: 40.8 IU/L
  AST: 74.6 IU/L
  BUN: 12.8 mg/dL
  CRE: 0.1 mg/dL
  Ca: 10.5 mg/dL
  Cl: 105.4 meq/L
  DBIL: 0 mg/dL
  GLC: 190.8 mg/dL
  IP: 9.3 mg/dL
  K: 4.4 meq/L
  LDH: 174.8 IU/L
  Na: 141.2 meq/L
  PL: 132.6 mg/dL
  RALB: 2.9 g/dL
  TBIL: 0.022 mg/dL
  TC: 73.2 mg/dL
  TG: 48.6 mg/dL
  TP: 5.3 g/dL
  gamma-GTP: 1.2 IU/L
[3]
  TERMINAL_BW: 217.4 g
  APTT: 23.3 s
  Bas: 0%
  Eos: 0.8%
  Fbg: 309.2 mg/dL
  Hb: 12.9 g/dL
  Ht: 39.8%
  Lym: 80%
  MCH: 20.5 pg
  MCHC: 32.3%
  MCV: 63.4 fL
  Mono: 2.6%
  Neu: 15.8%
  PT: 15.6 s
  Plat: 123.4 x10_4/uL
  RBC: 628 x10_4/ul
  Ret: 8.2%
  WBC: 100.7 x10_2/uL
  KIDNEY_L: 1 g
  KIDNEY_R: 1 g
  KIDNEY_TOTAL: 2 g
  LIVER: 9.4 g
  A/G: 1.3
  ALP: 1276.4 IU/L
  ALT: 36.8 IU/L
  AST: 70.2 IU/L
  BUN: 13.6 mg/dL
  CRE: 0.2 mg/dL
  Ca: 10.5 mg/dL
  Cl: 104.8 meq/L
  DBIL: 0 mg/dL
  GLC: 202.6 mg/dL
  IP: 9.6 mg/dL
  K: 4.1 meq/L
  LDH: 170 IU/L
  Na: 141.2 meq/L
  PL: 128.4 mg/dL
  RALB: 3 g/dL
  TBIL: 0.02 mg/dL
  TC: 70.4 mg/dL
  TG: 69.8 mg/dL
  TP: 5.3 g/dL
  gamma-GTP: 1.6 IU/L
[4]
  TERMINAL_BW: 233 g
  APTT: 23.5 s
  Bas: 0%
  Eos: 0.8%
  Fbg: 308.8 mg/dL
  Hb: 13.3 g/dL
  Ht: 40.9%
  Lym: 82.8%
  MCH: 20.5 pg
  MCHC: 32.5%
  MCV: 63.1 fL
  Mono: 2.2%
  Neu: 13.4%
  PT: 15.9 s
  Plat: 115.3 x10_4/uL
  RBC: 649.2 x10_4/ul
  Ret: 7.8%
  WBC: 120.1 x10_2/uL
  KIDNEY_L: 1 g
  KIDNEY_R: 1 g
  KIDNEY_TOTAL: 2 g
  LIVER: 11 g
  A/G: 1.2
  ALP: 1565 IU/L
  ALT: 45.4 IU/L
  AST: 73.6 IU/L
  BUN: 17.8 mg/dL
  CRE: 0.2 mg/dL
  Ca: 10.9 mg/dL
  Cl: 105.4 meq/L
  DBIL: 0 mg/dL
  GLC: 197.8 mg/dL
  IP: 7.3 mg/dL
  K: 4.7 meq/L
  LDH: 219 IU/L
  Na: 140.6 meq/L
  PL: 166 mg/dL
  RALB: 3 g/dL
  TBIL: 0.01 mg/dL
  TC: 85 mg/dL
  TG: 115 mg/dL
  TP: 5.5 g/dL
  gamma-GTP: 1 IU/L
300 mg/kg, 3 h, dose level Low
  TERMINAL_BW: 219.9 g
  APTT: 22.1 s
  Bas: 0%
  Eos: 1%
  Fbg: 310.8 mg/dL
  Hb: 13 g/dL
  Ht: 40.3%
  Lym: 75%
  MCH: 20.5 pg
  MCHC: 32.4%
  MCV: 63.3 fL
  Mono: 1.8%
  Neu: 22.4%
  PT: 15.2 s
  Plat: 115.5 x10_4/uL
  RBC: 637.8 x10_4/ul
  Ret: 7.3%
  WBC: 52.5 x10_2/uL
  KIDNEY_L: 0.9 g
  KIDNEY_R: 1 g
  KIDNEY_TOTAL: 1.9 g
  LIVER: 10.4 g
  A/G: 1.3
  ALP: 1442.2 IU/L
  ALT: 48 IU/L
  AST: 78.6 IU/L
  BUN: 16 mg/dL
  CRE: 0.2 mg/dL
  Ca: 11 mg/dL
  Cl: 105.4 meq/L
  DBIL: 0 mg/dL
  GLC: 181.4 mg/dL
  IP: 9.3 mg/dL
  K: 4.2 meq/L
  LDH: 140.6 IU/L
  Na: 143 meq/L
  PL: 147.2 mg/dL
  RALB: 3.1 g/dL
  TBIL: 0.024 mg/dL
  TC: 79.8 mg/dL
  TG: 51.6 mg/dL
  TP: 5.6 g/dL
  gamma-GTP: 1.6 IU/L
300 mg/kg, 6 h, dose level Low
  TERMINAL_BW: 217.9 g
  APTT: 24.4 s
  Bas: 0%
  Eos: 0.8%
  Fbg: 317.6 mg/dL
  Hb: 13.1 g/dL
  Ht: 40.7%
  Lym: 77.2%
  MCH: 20.6 pg
  MCHC: 32.3%
  MCV: 63.8 fL
  Mono: 1.8%
  Neu: 20%
  PT: 15.6 s
  Plat: 106.2 x10_4/uL
  RBC: 638.2 x10_4/ul
  Ret: 7.9%
  WBC: 68.9 x10_2/uL
  KIDNEY_L: 1 g
  KIDNEY_R: 1 g
  KIDNEY_TOTAL: 2 g
  LIVER: 10.3 g
  A/G: 1.3
  ALP: 1567.8 IU/L
  ALT: 39.4 IU/L
  AST: 72.8 IU/L
  BUN: 12.6 mg/dL
  CRE: 0.1 mg/dL
  Ca: 10.5 mg/dL
  Cl: 105.8 meq/L
  DBIL: 0 mg/dL
  GLC: 181.8 mg/dL
  IP: 9.2 mg/dL
  K: 4.4 meq/L
  LDH: 159.6 IU/L
  Na: 141.4 meq/L
  PL: 134.8 mg/dL
  RALB: 3.1 g/dL
  TBIL: 0.032 mg/dL
  TC: 80.8 mg/dL
  TG: 35 mg/dL
  TP: 5.6 g/dL
  gamma-GTP: 1.8 IU/L
300 mg/kg, 9 h, dose level Low
  TERMINAL_BW: 219.9 g
  APTT: 24.1 s
  Bas: 0%
  Eos: 0.2%
  Fbg: 325.6 mg/dL
  Hb: 13.2 g/dL
  Ht: 41%
  Lym: 79.4%
  MCH: 20.2 pg
  MCHC: 32%
  MCV: 63.1 fL
  Mono: 1%
  Neu: 18.8%
  PT: 15.6 s
  Plat: 113.9 x10_4/uL
  RBC: 651.2 x10_4/ul
  Ret: 7.9%
  WBC: 52.5 x10_2/uL
  KIDNEY_L: 1 g
  KIDNEY_R: 1 g
  KIDNEY_TOTAL: 2 g
  LIVER: 10.4 g
  A/G: 1.3
  ALP: 1458.4 IU/L
  ALT: 39.4 IU/L
  AST: 72 IU/L
  BUN: 14.2 mg/dL
  CRE: 0.1 mg/dL
  Ca: 10.8 mg/dL
  Cl: 105.4 meq/L
  DBIL: 0 mg/dL
  GLC: 201.8 mg/dL
  IP: 8.9 mg/dL
  K: 4.5 meq/L
  LDH: 153.6 IU/L
  Na: 140.6 meq/L
  PL: 152 mg/dL
  RALB: 3.2 g/dL
  TBIL: 0.026 mg/dL
  TC: 83 mg/dL
  TG: 79 mg/dL
  TP: 5.6 g/dL
  gamma-GTP: 1.6 IU/L
[5]
  TERMINAL_BW: 225.1 g
  APTT: 25.2 s
  Bas: 0%
  Eos: 1.2%
  Fbg: 336.2 mg/dL
  Hb: 13.8 g/dL
  Ht: 41.9%
  Lym: 80.4%
  MCH: 21.1 pg
  MCHC: 32.9%
  MCV: 64 fL
  Mono: 2.4%
  Neu: 15.2%
  PT: 15.5 s
  Plat: 121.2 x10_4/uL
  RBC: 654.4 x10_4/ul
  Ret: 7.7%
  WBC: 124 x10_2/uL
  KIDNEY_L: 1 g
  KIDNEY_R: 1 g
  KIDNEY_TOTAL: 2 g
  LIVER: 11 g
  A/G: 1.3
  ALP: 1795.2 IU/L
  ALT: 46.2 IU/L
  AST: 73 IU/L
  BUN: 18.8 mg/dL
  CRE: 0.2 mg/dL
  Ca: 10.6 mg/dL
  Cl: 106.4 meq/L
  DBIL: 0 mg/dL
  GLC: 184 mg/dL
  IP: 8.1 mg/dL
  K: 4.5 meq/L
  LDH: 204.8 IU/L
  Na: 141 meq/L
  PL: 169.2 mg/dL
  RALB: 3.1 g/dL
  TBIL: 0.004 mg/dL
  TC: 83.8 mg/dL
  TG: 175 mg/dL
  TP: 5.6 g/dL
  gamma-GTP: 2 IU/L
